# Reference: patent publication US8580776B2, “Compositions and methods for treating neurodegenerating diseases” (The Board of Trustees of the University of Illinois, priority 2007, dated 2013)
# How the values were obtained:
# [1] = test system: NOS2; assay: NOS2 and NeuN staining in wild type mice treated with DSP4 and injected with Aβ1-42; type: in vivo; conditions: Aβ1-42 injected
# Description: Genotyping was performed to confirm identity of NOS2 null and wild type littermates (FIG. 7A), and wild type mice treated with DSP4, and wild type mice treated with DSP4 and injected with oligomeric Aβ1-42 (FIG. 7B). One day later brain sections were analyzed for NOS2 (green) and NeuN (red) staining White arrows indicate neurons labeled with both antibodies.
# Wild type and NOS2 null mice were treated with two i.p. injections of DSP4 as described below, and injected with oligomeric Aβ1-42 4 weeks after the second DSP4 injection. One day later brain sections were prepared from the mice, sections from wild type (FIG. 8A) and NOS2 null mice (FIG. 8B) were stained for SMI-32.
# Slides were washed for 5 min. with PBS and blocked with 5% normal donkey serum in PBS at room temperature for 30 min. Primary antibodies were diluted in 1% normal donkey serum in PBS. […] Images were obtained on a Zeiss Axioplan2 fluorescence microscope equipped with an Axiocam MRm digital camera and Axiovision 4.2 imaging software.
# Quantitative analysis of NOS2 positively staining cells was performed as described above. In brief, NOS2 positive containing neurons having large cell bodies were counted in 5 sections having a defined distance (0, 200 and 400 μm rostral and caudal) relative to the level of cortical injection, in brain sections from at least 3 or 4 animals per group. […]
# [2] = test system: microglial marker Mac1; assay: Glial activation: Mac1 staining of brain sections; type: in vivo, mice
# Description: The effects of DSP4 treatment on glial activation were assessed in hippocampus and frontal cortex by staining for microglial marker Mac1 and astrocyte marker GFAP (FIG. 3). Sections from vehicle and DSP4 treated H6 mice brains were stained with antibodies directed against Mac1 to assess microglial activation (FIG. 3A-C); and GFAP to assess astrocyte activation (FIG. 3D-F). […] FIGS. 3G-3I show quantitative analysis of Mac1 (FIG. 3G-3H) and GFAP staining (FIG. 31).
# Hemibrains were fixed overnight in 4% paraformaldehyde in 0.1M phosphate buffer, then overnight in 10% sucrose in 0.1M phosphate buffer, and then frozen in isopentane at −30° C. Serial sections (35 um thick) were prepared on a cryostat, and stored in cryoprotective solution (0.1M phosphate buffer: ethyleneglycol:glycerol 30:40:30) at −20° C. […] Staining was quantified using software provided by the manufacturer (Zeiss AxioVision). GFAP and Mac1 staining was quantified in 3 different areas on each of 4 serial sections for each animal (n=3 or 4 for Mac1; n=7 or 9 for GFAP staining) The data was average area stained per section (as % total area) from DSP4-treated (n=3 for Mac1; n=7 for GFAP) and vehicle-treated (n=4 for Mac1; n=9 for GFAP) mice. […]
# [3] = test system: IκBα; assay: QPCR of IκBα mRNA in frontal cortex of DSP4-treated rats; type: in vivo, rat
# Description: In this experiment, the effects of DSP4 on tyrosine hydroxylase (TH) and IkBα expression were analyzed. Adult rat Sprague Dawley rats were treated with the selective neurotoxin DSP4 to lesion locus ceruleus (LC) noradrenergic neurons and deplete cortical NA levels as described in Example 1.
# RNA samples from control or DSP4-treated rats (n=4 each) were converted to cDNA and analyzed by QPCR for relative levels of tyrosine hydroxylase (TH) (FIG. 6A) in the locus ceruleus (LC).
# Total cytoplasmic RNA from tissues was prepared from cells using TRIZOL reagent according to manufacturer procedures (Invitrogen/GIBCO); aliquots were converted to cDNA using random hexamer primers, and mRNA levels were estimated by quantitative touchdown PCR (QPCR). Conditions were 35 cycles of denaturation at 94° C. for 10 s; annealing at 58-64° C. for 15 s; and extension at 72° C. for 20 s on a Corbett Rotorgene Real-Time PCR unit (Corbett, Australia). The PCR mastermix contained SYBR Green (1 μl diluted 1:10,000 SybrGreen I 10,000× concentrate, Molecular Probes, Eugene, Oreg.). Relative mRNA concentrations were calculated from the takeoff point of reactions using manufacturer's software. Melting curve analysis and agarose gel electrophoresis were performed to ensure production of single and corrected size products. […]
smiles,measurement,setting,value
"CCN(CCCl)Cc1ccccc1Br [DSP4, N-(2-chloroethyl)-N-ethyl-2-bromobenzylamine]",NOS2 expression in neurons,[1],increases NOS2 expression in neurons
same,"Mac1 staining, hippocampus and frontal cortex",[2]; hippocampus effect not statistically significant,increased Mac1 staining in both regions
same,"increase in Mac1 staining, frontal cortex","[2]; versus vehicle, statistically significant",approximately 40%
same,cortical IκBα mRNA levels,[3]; P<0.01,45 % versus control values
same,reduction of cortical IκBα mRNA levels,"[3]; versus control values, n=4, P<0.01",55%
